Assay results taken from the OligoGym collection.
HELM strings list units from the 5' end as sugar, base in round brackets, then linkage (d deoxyribose, r ribose, m 2'-O-methyl, p phosphodiester). [sp] = phosphorothioate linkage

Tests used:
CDKN2B-AS1 [1] = assay: HEK293-TLR7, 100 nM ASO, then resiquimod
CDKN2B-AS1 [2] = assay: HEK293-TLR8, 100 nM ASO, then resiquimod

Substance	TLR7 signal (NF-kB luciferase) (% of resiquimod alone) (CDKN2B-AS1 [1])	TLR8 potentiation (NF-kB luciferase) (fold of resiquimod alone) (CDKN2B-AS1 [2])
RNA1{m(G)[sp].m(G)[sp].m(A)[sp].m(U)[sp].m(U)[sp].d(A)[sp].d(A)[sp].d(A)[sp].d(A)[sp].d(C)[sp].d(A)[sp].d(G)[sp].d(A)[sp].d(T)[sp].d(T)[sp].m(A)[sp].m(A)[sp].m(U)[sp].m(A)[sp].m(C)}$$$$	27.2	1.16
RNA1{m(G)[sp].m(U)[sp].m(G)[sp].m(U)[sp].m(C)[sp].d(C)[sp].d(T)[sp].d(T)[sp].d(C)[sp].d(A)[sp].d(T)[sp].d(G)[sp].d(C)[sp].d(T)[sp].d(T)[sp].m(U)[sp].m(G)[sp].m(G)[sp].m(A)[sp].m(U)}$$$$	18.1	1.33
RNA1{m(A)[sp].m(U)[sp].m(A)[sp].m(U)[sp].m(C)[sp].d(T)[sp].d(G)[sp].d(C)[sp].d(T)[sp].d(G)[sp].d(C)[sp].d(C)[sp].d(C)[sp].d(A)[sp].d(C)[sp].m(C)[sp].m(U)[sp].m(U)[sp].m(C)[sp].m(U)}$$$$	47.5	2.55
RNA1{m(U)[sp].m(C)[sp].m(U)[sp].m(C)[sp].m(C)[sp].d(A)[sp].d(T)[sp].d(G)[sp].d(T)[sp].d(C)[sp].d(C)[sp].d(C)[sp].d(A)[sp].d(G)[sp].d(G)[sp].m(C)[sp].m(C)[sp].m(U)[sp].m(C)[sp].m(C)}$$$$	43.5	3.41
RNA1{m(U)[sp].m(G)[sp].m(U)[sp].m(G)[sp].m(A)[sp].d(A)[sp].d(A)[sp].d(A)[sp].d(G)[sp].d(A)[sp].d(T)[sp].d(T)[sp].d(A)[sp].d(T)[sp].d(C)[sp].m(U)[sp].m(U)[sp].m(C)[sp].m(U)[sp].m(U)}$$$$	34.5	2.79
RNA1{m(C)[sp].m(A)[sp].m(G)[sp].m(U)[sp].m(G)[sp].d(T)[sp].d(T)[sp].d(T)[sp].d(T)[sp].d(T)[sp].d(A)[sp].d(A)[sp].d(T)[sp].d(T)[sp].d(T)[sp].m(U)[sp].m(G)[sp].m(U)[sp].m(A)[sp].m(G)}$$$$	62.7	3.18
RNA1{m(A)[sp].m(G)[sp].m(A)[sp].m(U)[sp].m(U)[sp].d(A)[sp].d(T)[sp].d(C)[sp].d(T)[sp].d(T)[sp].d(C)[sp].d(T)[sp].d(T)[sp].d(T)[sp].d(T)[sp].m(A)[sp].m(A)[sp].m(U)[sp].m(U)[sp].m(U)}$$$$	37.1	3.02
RNA1{m(C)[sp].m(U)[sp].m(C)[sp].m(U)[sp].m(C)[sp].d(T)[sp].d(T)[sp].d(T)[sp].d(C)[sp].d(T)[sp].d(G)[sp].d(T)[sp].d(G)[sp].d(G)[sp].d(T)[sp].m(U)[sp].m(U)[sp].m(C)[sp].m(U)[sp].m(C)}$$$$	92.3	3.82
RNA1{m(A)[sp].m(A)[sp].m(U)[sp].m(U)[sp].m(U)[sp].d(A)[sp].d(A)[sp].d(A)[sp].d(G)[sp].d(C)[sp].d(A)[sp].d(T)[sp].d(G)[sp].d(A)[sp].d(A)[sp].m(U)[sp].m(A)[sp].m(U)[sp].m(U)[sp].m(A)}$$$$	46.8	3.29
RNA1{m(G)[sp].m(G)[sp].m(U)[sp].m(G)[sp].m(G)[sp].d(C)[sp].d(C)[sp].d(A)[sp].d(C)[sp].d(A)[sp].d(G)[sp].d(G)[sp].d(C)[sp].d(A)[sp].d(A)[sp].m(C)[sp].m(G)[sp].m(U)[sp].m(C)[sp].m(A)}$$$$	39.1	0.8
RNA1{m(C)[sp].m(A)[sp].m(G)[sp].m(G)[sp].m(C)[sp].d(C)[sp].d(T)[sp].d(C)[sp].d(C)[sp].d(A)[sp].d(G)[sp].d(T)[sp].d(G)[sp].d(T)[sp].d(C)[sp].m(U)[sp].m(U)[sp].m(C)[sp].m(U)[sp].m(C)}$$$$	54.1	2.02
RNA1{m(A)[sp].m(G)[sp].m(C)[sp].m(A)[sp].m(G)[sp].d(T)[sp].d(C)[sp].d(T)[sp].d(C)[sp].d(C)[sp].d(A)[sp].d(T)[sp].d(G)[sp].d(T)[sp].d(C)[sp].m(C)[sp].m(C)[sp].m(A)[sp].m(G)[sp].m(G)}$$$$	25.5	2.81
RNA1{m(G)[sp].m(U)[sp].m(C)[sp].m(G)[sp].m(U)[sp].d(G)[sp].d(G)[sp].d(C)[sp].d(A)[sp].d(A)[sp].d(A)[sp].d(T)[sp].d(A)[sp].d(G)[sp].d(T)[sp].m(C)[sp].m(C)[sp].m(U)[sp].m(A)[sp].m(G)}$$$$	27.5	2.12
RNA1{m(G)[sp].m(U)[sp].m(G)[sp].m(G)[sp].m(U)[sp].d(T)[sp].d(A)[sp].d(A)[sp].d(G)[sp].d(T)[sp].d(A)[sp].d(C)[sp].d(A)[sp].d(T)[sp].d(G)[sp].m(A)[sp].m(G)[sp].m(C)[sp].m(U)[sp].m(C)}$$$$	21.6	0.59
